In ChEMBL document CHEMBL3046314, “Synthesis, cytotoxicity, and molecular properties prediction of novel 1,3-diarylpyrazole derivatives” (Med Chem Res, 2013):

Experiments:
Type in all cases: functional, cell-based
HL-60 = assay: Cytotoxicity against Homo sapiens (human) HL60 cells after 48 hr by MTT assay
MDA-MB-231 = assay: Cytotoxicity against Homo sapiens (human) MDA-MB-231 cells after 48 hr by MTT assay; conditions: MDA-MB-231, 48 h
HeLa = assay: Cytotoxicity against Homo sapiens (human) HeLa cells after 48 hr by MTT assay
Raji = assay: Cytotoxicity against Homo sapiens (human) Raji cells after 48 hr by MTT assay
MCF7 = assay: Cytotoxicity against Homo sapiens (human) MCF7 cells after 48 hr by MTT assay
[1] = Homo sapiens, HL-60, 48 h, read-out: IC50
[2] = Homo sapiens, Raji, 48 h, read-out: IC50
[3] = Homo sapiens, MCF7, 48 h, read-out: IC50

| SMILES | IC50 (HL-60; [1]) | IC50 (MDA-MB-231) | IC50 (HeLa) | IC50 (Raji; [2]) | IC50 (MCF7; [3]) | IC50 (HL-60; hl-60) | IC50 (Raji; raji) | IC50 (MCF7; mcf7) |
| --- | --- | --- | --- | --- | --- | --- | --- | --- |
| O=C(O)c1cn(-c2ccccc2)nc1-c1ccncc1 | > 100 µM | > 100 µM | > 100 µM | > 100 µM | > 100 µM | – | – | – |
| O=C(c1cn(-c2ccccc2)nc1-c1ccncc1)N1CCN(c2ccccc2)CC1 | > 100 µM | > 100 µM | > 100 µM | > 100 µM | > 100 µM | – | – | – |
| O=C(c1cn(-c2ccccc2)nc1-c1cccnc1)N1CCN(c2ccccc2)CC1 | 24.5 µM | > 100 µM | > 100 µM | 32.8 µM | > 100 µM | – | – | – |
| Cc1ccc(C(C)C)c(OC(=O)c2cn(-c3ccccc3)nc2-c2cccnc2)c1 | 22.7 µM | > 100 µM | > 100 µM | 20.6 µM | 84.2 µM | – | – | – |
| O=C(Oc1ccc2ccccc2c1)c1cn(-c2ccccc2)nc1-c1cccnc1 | – | > 100 µM | > 100 µM | – | – | ND(Insoluble) | ND(Insoluble) | ND(Insoluble) |
| O=C(c1cn(-c2ccccc2)nc1-c1cccnc1)N1CCN(c2ccncc2)CC1 | > 100 µM | > 100 µM | > 100 µM | > 100 µM | > 100 µM | – | – | – |
| O=C(c1cn(-c2ccccc2)nc1-c1cccnc1)N1CCN(c2ccc(C(F)(F)F)cc2)CC1 | 16.9 µM | > 100 µM | 28.6 µM | 15.1 µM | 75.3 µM | – | – | – |
| CCc1ccc(OC(=O)c2cn(-c3ccccc3)nc2-c2ccncc2)cc1 | – | > 100 µM | > 100 µM | – | – | ND(Insoluble) | ND(Insoluble) | ND(Insoluble) |
| COc1ccc(OC(=O)c2cn(-c3ccccc3)nc2-c2ccncc2)cc1 | > 100 µM | > 100 µM | > 100 µM | > 100 µM | > 100 µM | – | – | – |
| O=C(NCc1ccccc1)c1cn(-c2ccccc2)nc1-c1cccnc1 | – | > 100 µM | > 100 µM | – | – | ND(Insoluble) | ND(Insoluble) | ND(Insoluble) |
| CN1CCN(C(=O)c2cn(-c3ccccc3)nc2-c2cccnc2)CC1 | > 100 µM | > 100 µM | > 100 µM | 75.6 µM | > 100 µM | – | – | – |
| CN1CCN(C(=O)c2cn(-c3ccccc3)nc2-c2ccncc2)CC1 | > 100 µM | > 100 µM | > 100 µM | > 100 µM | > 100 µM | – | – | – |
| O=C(c1cn(-c2ccccc2)nc1-c1ccncc1)N1CCOCC1 | > 100 µM | > 100 µM | > 100 µM | > 100 µM | > 100 µM | – | – | – |
| CC(C)(C)c1ccc(OC(=O)c2cn(-c3ccccc3)nc2-c2ccncc2)cc1 | 18.7 µM | 34.5 µM | 35.4 µM | 33.3 µM | 32.2 µM | – | – | – |
| O=C(Oc1ccc2ccccc2c1)c1cn(-c2ccccc2)nc1-c1ccncc1 | > 100 µM | > 100 µM | > 100 µM | 12.1 µM | 44.5 µM | – | – | – |
| COc1ccc(OC(=O)c2cn(-c3ccccc3)nc2-c2cccnc2)cc1 | > 100 µM | > 100 µM | > 100 µM | > 100 µM | > 100 µM | – | – | – |
| O=C(Oc1ccc(-c2ccccc2)cc1)c1cn(-c2ccccc2)nc1-c1cccnc1 | – | > 100 µM | > 100 µM | – | – | ND(Insoluble) | ND(Insoluble) | ND(Insoluble) |
| CC(C)(C)c1ccc(OC(=O)c2cn(-c3ccccc3)nc2-c2cccnc2)cc1 | > 100 µM | > 100 µM | > 100 µM | 42.3 µM | > 100 µM | – | – | – |
| O=C(c1cn(-c2ccccc2)nc1-c1ccncc1)N1CCN(c2ccc(C(F)(F)F)cc2)CC1 | > 100 µM | > 100 µM | > 100 µM | 9.63 µM | > 100 µM | – | – | – |
| O=C(c1cn(-c2ccccc2)nc1-c1cccnc1)N1CCOCC1 | > 100 µM | > 100 µM | > 100 µM | > 100 µM | > 100 µM | – | – | – |
| O=C(c1cn(-c2ccccc2)nc1-c1ccncc1)N1CCC(Cc2ccccc2)CC1 | 16.4 µM | > 100 µM | 32.8 µM | 21.3 µM | 56.4 µM | – | – | – |
| O=C(c1cn(-c2ccccc2)nc1-c1ccncc1)N1CCN(c2ccncc2)CC1 | > 100 µM | > 100 µM | > 100 µM | > 100 µM | > 100 µM | – | – | – |
| Cc1ccc(C(C)C)c(OC(=O)c2cn(-c3ccccc3)nc2-c2ccncc2)c1 | 17.8 µM | > 100 µM | > 100 µM | 10.6 µM | > 100 µM | – | – | – |
| O=C(c1cn(-c2ccccc2)nc1-c1cccnc1)N1CCC(Cc2ccccc2)CC1 | 16.1 µM | > 100 µM | 25.3 µM | 8.12 µM | 32.2 µM | – | – | – |
| O=C(Oc1ccc(-c2ccccc2)cc1)c1cn(-c2ccccc2)nc1-c1ccncc1 | – | > 100 µM | > 100 µM | – | – | ND(Insoluble) | ND(Insoluble) | ND(Insoluble) |
| O=C(NCc1ccccc1)c1cn(-c2ccccc2)nc1-c1ccncc1 | > 100 µM | > 100 µM | > 100 µM | > 100 µM | > 100 µM | – | – | – |
| CC(C)c1cccc(OC(=O)c2cn(-c3ccccc3)nc2-c2ccncc2)c1 | – | > 100 µM | > 100 µM | – | – | ND(Insoluble) | ND(Insoluble) | ND(Insoluble) |
| CC(C)c1cccc(OC(=O)c2cn(-c3ccccc3)nc2-c2cccnc2)c1 | 23.7 µM | > 100 µM | > 100 µM | 11.6 µM | 75.5 µM | – | – | – |
| O=C(O)c1cn(-c2ccccc2)nc1-c1cccnc1 | > 100 µM | > 100 µM | > 100 µM | > 100 µM | > 100 µM | – | – | – |
